Positions of bridges follow the written chain, without caps; N, C: chain ends. Residues, ends and D or L forms follow the SMILES beside them.

This passage reports IC50 results from ChEMBL document CHEMBL1151069 (Bioorg Med Chem Lett, 1996).

Assay [1] deals with T1, Endothelin receptor type B (Bos taurus, UniProt P28088).
T1 sequence (P28088 whole entry): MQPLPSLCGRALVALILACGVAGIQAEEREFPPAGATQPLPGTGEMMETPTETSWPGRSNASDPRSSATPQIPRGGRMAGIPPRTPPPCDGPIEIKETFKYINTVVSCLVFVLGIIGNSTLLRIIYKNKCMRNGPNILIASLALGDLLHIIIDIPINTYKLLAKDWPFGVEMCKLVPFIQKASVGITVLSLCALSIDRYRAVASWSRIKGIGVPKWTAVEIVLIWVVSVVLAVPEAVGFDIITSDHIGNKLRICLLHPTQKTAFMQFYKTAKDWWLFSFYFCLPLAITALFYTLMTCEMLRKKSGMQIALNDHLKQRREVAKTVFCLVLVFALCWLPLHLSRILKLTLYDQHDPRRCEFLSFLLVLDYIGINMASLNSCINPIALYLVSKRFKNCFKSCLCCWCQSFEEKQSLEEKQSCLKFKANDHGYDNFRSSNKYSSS
The assay is described as follows: Binding activity against Endothelin B receptor expressed from bovine cerebellum membrane preparation. Format: tissue-based.

The next assay deals with T2, Endothelin-1 receptor (Bos taurus, UniProt P21450).
T2 sequence (P21450 whole entry): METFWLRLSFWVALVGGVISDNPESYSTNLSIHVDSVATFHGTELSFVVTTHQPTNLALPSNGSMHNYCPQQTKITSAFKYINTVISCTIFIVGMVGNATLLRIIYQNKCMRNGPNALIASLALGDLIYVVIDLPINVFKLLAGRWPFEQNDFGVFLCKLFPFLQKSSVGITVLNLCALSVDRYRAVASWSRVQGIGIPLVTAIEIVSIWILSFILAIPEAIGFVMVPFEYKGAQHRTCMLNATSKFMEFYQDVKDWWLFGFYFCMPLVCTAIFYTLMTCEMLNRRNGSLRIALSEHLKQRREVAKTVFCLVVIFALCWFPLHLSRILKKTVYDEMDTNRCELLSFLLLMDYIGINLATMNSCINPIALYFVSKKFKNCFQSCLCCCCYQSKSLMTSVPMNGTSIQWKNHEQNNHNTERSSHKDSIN
The assay is described as follows: Binding activity against Endothelin A receptor expressed from bovine lung membrane preparation. It counts as tissue-based.

What is called IC50 is the concentration that inhibits the measured activity by half. Low values mean greater potency, high ones weaker potency. `C[C@@H]1NC(=O)[C@H]([C@@H](C)O)NC(=O)CNC(=O)[C@H](Cc2c[nH]cn2)NC(=O)[C@H](Cc2c[nH]c3ccccc23)NC(=O)[C@H](CC(N)=O)NC(=O)CNC(=O)C[C@@H](C(=O)N[C@@H](Cc2c[nH]c3ccccc23)C(=O)N[C@@H](Cc2ccccc2)C(=O)N[C@@H](Cc2ccccc2)C(=O)N[C@@H](CC(N)=O)C(=O)N[C@@H](Cc2ccc(O)cc2)C(=O)N[C@@H](Cc2ccc(O)cc2)C(=O)N[C@@H](Cc2ccc3ccccc3c2)C(=O)O)NC(=O)[C@@H]2CCCN2C1=O` came in with an IC50 in assay [1] of 6.3 nM. This counts as single-digit nanomolar.

Take `C[C@@H]1NC(=O)[C@@H]([C@@H](C)O)NC(=O)CNC(=O)[C@@H](Cc2cnc[nH]2)NC(=O)[C@H](Cc2c[nH]c3ccccc23)NC(=O)[C@@H](CC(N)=O)NC(=O)CNC(=O)C[C@H](C(=O)N[C@@H](Cc2c[nH]c3ccccc23)C(=O)N[C@@H](Cc2ccccc2)C(=O)N[C@@H](Cc2ccccc2)C(=O)N[C@@H](CC(N)=O)C(=O)N[C@@H](Cc2ccc(O)cc2)C(=O)N[C@@H](Cc2ccc(O)cc2)C(=O)N[C@@H](Cc2c[nH]c3ccccc23)C(=O)O)NC(=O)[C@H]2CCCN2C1=O`: the IC50 at Endothelin-1 receptor was over 98 nM.

In turn, `C[C@@H]1NC(=O)[C@@H]([C@@H](C)O)NC(=O)CNC(=O)[C@@H](Cc2c[nH]cn2)NC(=O)[C@H](Cc2c[nH]c3ccccc23)NC(=O)[C@@H](CC(N)=O)NC(=O)CNC(=O)C[C@H](C(=O)N[C@@H](Cc2c[nH]c3ccccc23)C(=O)N[C@@H](Cc2ccccc2)C(=O)N[C@@H](Cc2ccccc2)C(=O)N[C@@H](CC(N)=O)C(=O)N[C@@H](Cc2ccc(O)cc2)C(=O)N[C@H](Cc2ccc(O)cc2)C(=O)N[C@@H](Cc2c[nH]c3ccccc23)C(=O)O)NC(=O)[C@H]2CCCN2C1=O` came in with an IC50 at Endothelin-1 receptor of over 98 nM.

Turning to `C[C@@H]1NC(=O)[C@H]([C@@H](C)O)NC(=O)CNC(=O)[C@H](Cc2c[nH]cn2)NC(=O)[C@H](Cc2c[nH]c3ccccc23)NC(=O)[C@H](CC(N)=O)NC(=O)CNC(=O)C[C@@H](C(=O)N[C@@H](Cc2c[nH]c3ccccc23)C(=O)N[C@@H](Cc2ccccc2)C(=O)N[C@@H](Cc2ccccc2)C(=O)N[C@@H](CC(N)=O)C(=O)N[C@@H](Cc2ccc(O)cc2)C(=O)N[C@@H](Cc2ccc(O)cc2)C(=O)NCC(=O)O)NC(=O)[C@@H]2CCCN2C1=O` (GNWHGTAPDWFFNYYG-OH; lactam N-9), the figures for the IC50 (in assay [1]; at Endothelin-1 receptor) were 120 nM and over 520 nM, respectively.
